Laboratory results taken from patent US20090149417A1, “Methods and compositions for the treatment of cancer using benzopyrone-type PARP inhibitors” (priority 2007, published 2009).
Several values for one entry are separate records, joined by “and”; a condition that tells them apart may be missing. Equal values may be shown once.

Tests used:
[1] = tested on: Colo375FG metastatic pancreatic adenocarcinoma cells; test: Live cell number (Coulter counter, methylene blue, PI exclusion); assay type: cell-based, human
Experimental: Colo375FG metastatic pancreatic adenocarcinoma cells are cultured in Dulbecco Modified Eagle Medium with 10% fetal bovine serum. Cells are plated at 10^5 per P100 or at 10^4 per P60 (for assays requiring up to 3 days of culture), in the presence of different concentrations of BiPar compounds and other agents, or DMSO control. Following treatment, the number of attached cells is measured using Coulter counter, and by staining with 1% methylene blue. Methylene blue is dissolved in 50%-50% mixture of Methanol and water. Cells are plated in 24- or 96-well plates and treated with compounds as indicated, then media are aspirated, cells are washed with PBS, fixed in methanol for 5-10 min, washed and the plates are allowed to dry completely. Methylene blue solution is added to wells and plates are incubated for 5 min. Staining solution is removed and plates are washed with dH2O. After plates are completely dry, a small amount of 1N HCl is added to each well to extract the methylene blue. The OD readout at 600 nm and a calibration curve are used to determine cell number.
IIIg (6-nitro-5-iodo-benzopyrone) is dissolved directly from dry powder to 10 mM stock solution in DMSO for each separate experiment, and then the entire volume of the stock solution is used to prepare working concentrations in cell culture medium to avoid any possibility of precipitation and the corresponding loss of compound. Control experiments are carried out with the matching volume/concentration of the vehicle (DMSO).
(§1) After the addition of drugs and incubation, cells are trypsinized and aliquots of the samples are taken for counting and PI (Propidium Iodide) exclusion assay. One part of the cells is centrifuged and resuspended in 0.5 ml ice-cold PBS containing 5 μg/ml of PI. The other part of the cells is fixed in ice-cold 70% ethanol and stored in a freezer overnight. For cell cycle analysis, cells are stained with propidium iodide (PI) by standard procedures. Cellular DNA content is determined by flow cytometry using BD LSRII FACS, and the percentages of cells in G1, S or G2/M are determined using ModFit software.
Colo375FG metastatic pancreatic adenocarcinoma cells are obtained from ATCC and cultured in Dulbecco Modified Eagle Medium with 10% fetal bovine serum. Cells are plated at 10^5 cells per P100 cell culture dish or at 10^4 cells per P60 cell culture dish in the presence of different concentrations compounds or DMSO control. Following treatment, the number of attached cells is measured using Coulter counter, and by staining with 1% methylene blue. Methylene blue is dissolved in 50%-50% mixture of Methanol and water. Cells are plated in 24- or 96-well plates and treated as planned, media are aspirated, cells are washed with PBS, fixed in methanol for 5-10 min, methanol is aspirated and plates are allowed to dry completely. Methylene blue solution is added to wells and plates are incubated for 5 min. Staining solution is removed and plates are washed with dH2O until washes are no longer blue. After plates are completely dry, a small amount of 1N HCl is added to each well to extract the methylene blue. The OD readout at 600 nm and a calibration curve are used to determine cell number.
Compounds of the invention are dissolved directly from dry powder to 10 mM stock solution in DMSO for each separate experiment. Control experiments are carried out with the matching volume/concentration of the vehicle (DMSO). In these controls, the cells show no changes in their growth or cell cycle distribution.
as §1, with “ug/ml” for “μg/ml”, “Cellular DNA content is determined by flow cytometry using BD LSRII FACS, and the percentages of cells in G1, S or G2/M are determined using ModFit software.” left out

[2] = tested on: Colo375FG metastatic pancreatic adenocarcinoma cells; test: Bromodeoxyuridine (BrdU) labeling assay (flow cytometry); assay type: cell-based, human
Experimental: 50 μl of BrdU (Sigma Chemical Co., St. Louis, Mo.) stock solution (1 mM) is added to give 10 μM BrdU final concentration. The cells are incubated for 30 min at 37° C. and fixed in ice-cold 70% ethanol and stored in a cold room (4° C.) overnight. Fixed cells are centrifuged and washed once in 2 ml PBS, then resuspended in 0.7 ml of denaturation solution (0.2 mg/ml pepsin in 2 N HCl) for 15 min at 37° C. in the dark and suspended with 1.04 ml 1M Tris buffer (Trizma base, Sigma Chemical Co.) to terminate the hydrolysis and washed in 2 ml PBS.
(§2) Cells are resuspended in 100-μl anti-BrdU antibody (DakoCytomation, Carpinteria, Calif.) with 1:100 dilution in TBFP permeable buffer (0.5% Tween-20, 1% bovine serum albumin and 1% fetal bovine serum in PBS) and incubated for 25 min at room temperature in the dark and washed in 2 ml PBS. The primary antibody-labeled cells are resuspended in 100 μl Alexa Fluor F(ab′)2 fragment of goat anti-mouse IgG (H+L) (2 mg/mL) (Molecular Probes, Eugene, Oreg.) with 1:200 dilution in TBFP permeable buffer and incubated for 25 min at room temperature in the dark and washed in 2 ml PBS, then resuspended in 0.5 ml ice-cold PBS containing 1 μg/ml 4′,6-diamidino-2-phenylindole (DAPI) for at least 30 min. All cell samples are analyzed with a BD LSR II (BD Biosciences, San Jose, Calif.).
as §2, with “50 μl of BrdU (Sigma Chemical Co., St. Louis, Mo.) stock solution (1 mM) is added to give 10 μM BrdU final concentration. The cells are incubated for 30 min at 37 °C and fixed in ice-cold 70% ethanol and stored in a cold room (4 °C) overnight. Fixed cells are centrifuged and washed once in 2 ml PBS, then resuspended in 0.7 ml of denaturation solution (0.2 mg/ml pepsin in 2 N HCl) for 15 min at 37° C. in the dark and suspended with 1.04 ml 1M Tris buffer (Trizma base, Sigma Chemical Co.) and washed in 2 ml PBS. Then cells” for “Cells”

[3] = combination of IIIg and oxaliplatin
[4] = combination: IIIg 2.5 μM + OxaliPt 10 μM
[5] = combination: IIIg 2.5 μM + OxaliPt 20 μM
[6] = combination: IIIg 12.5 μM + OxaliPt 10 μM
[7] = combination: IIIg 12.5 μM + OxaliPt 20 μM
[8] = combination: IIIg 25 μM + OxaliPt 10 μM
[9] = combination: IIIg 25 μM + OxaliPt 20 μM
[10] = Compound IIIc 0 mM, OxaliPt 10 mM

## O=c1ccc2c(I)c([N+](=O)[O-])ccc2o1 [IIIg, 5-iodo-6-nitro-benzopyrone]
[1]; IIIg 2.5 μM, OxaliPt 0 μM
  Live Cell (%): 100% and 118%
[1]; [3]
  Percentage of live cells: significantly reduces the percentage of live cells
[1]; [4]
  Live Cell (%): 62%
[1]; [5]
  Live Cell (%): 27%
[1]; [6]
  Live Cell (%): 22%
[1]; [7]
  Live Cell (%): 13%
[1]; [8]
  Live Cell (%): 11%
[1]; [9]
  Live Cell (%): 7%
[2]; IIIg 2.5 μM, OxaliPt 0 μM
  S-phase % BrdU+: 94.89%
[2]; IIIg 12.5 μM, OxaliPt 0 μM
  S-phase % BrdU+: 93.1%
[2]; IIIg 25 μM, OxaliPt 0 μM
  S-phase % BrdU+: 75.18%
[2]; [3]
  Proliferation (percentage of BrdU positive cells): inhibits the proliferation
[2]; [4]
  S-phase % BrdU+: 86.3%
[2]; [5]
  S-phase % BrdU+: 65.32%
[2]; [6]
  S-phase % BrdU+: 67.5%
[2]; [7]
  S-phase % BrdU+: 33%
[2]; [8]
  S-phase % BrdU+: 24.69%
[2]; [9]
  S-phase % BrdU+: 33.85%

## O=C1[O][Pt]2([NH][C@@H]3CCCC[C@H]3[NH]2)[O]C1=O [OxaliPt, oxaliplatin, reference compound]
[1]; [10]
  Live Cell (%): 54%
[1]; Compound IIIc 0 mM, OxaliPt 20 mM
  Live Cell (%): 29%
[1]; IIIg 0 μM, OxaliPt 10 μM
  Live Cell (%): 54%
[1]; IIIg 0 μM, OxaliPt 20 μM
  Live Cell (%): 29%
[2]; [10]
  Cells in S-phase of cell cycle (% BrdU+): 81.74%
[2]; IIIg 0 μM, OxaliPt 10 μM
  S-phase % BrdU+: 81.74%
[2]; IIIg 0 μM, OxaliPt 20 μM
  S-phase % BrdU+: 63.12%
